Assay results published in US5089623A, “Certain imidate insecticides” (Imperial Chemical Industries Plc, priority 1990, dated 1992).

Assays:
Type in all cases: in vivo
[1] = system: Housefly [Musca domestica]; test: Housefly insecticidal test (HF); conditions: per 25 female houseflies, 48 hours
[2] = system: Cabbage Looper [Trichoplusia ni (Hubner)]; test: Cabbage looper test (CL); conditions: second-instar larvae, 3-5 days, percent in solution
[3] = system: Aster Leafhopper [Macrosteles fascifrens (Stal)]; test: Aster leafhopper test (LH); conditions: adults/nymphs, 48 hours, percent in solution
[4] = system: Tobacco Budworm [Heliothis virescens (Fabricius)] eggs; test: Tobacco budworm egg test (TBW-E); conditions: percent in solution
[5] = system: Maize weevil [Sitophilus Zeamais (Motschulsky)]; test: Maize weevil test (MW); conditions: adult weevils, treated corn seeds, 48 hours, percent in solution
Summary of the method: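 Adult weevils (10) were placed with four corn seeds that had been dipped 2-3 s in compound dissolved in 50:50 acetone:water, then dried, and held at about 25° C. Mortality was scored at 48 h. LC50 was taken from dosage-mortality curves and expressed as percent compound in solution, from a 0.01% top concentration.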

Structure (SMILES) | LC50 HF [1] [µg] | LC50 CL [2] [%] | LC50 LH [3] [%] | LC50 TBW E [4] [%] | LC50 MW [5] [%]
COc1c(Cl)cc(N=C(OCc2cccc(Oc3ccccc3)c2)C(C)C)cc1Cl [Compound 91] | 37 | 0.002 | 0.003 | > 0.01 | –
CC(C)C(=Nc1ccc(F)cc1)OCCc1cccc(Oc2ccccc2)c1 [Compound 456] | > 100 | 0.017 | > 0.05 | > 0.05 | > 0.01
CC(C)C(=Nc1ccc(F)c([N+](=O)[O-])c1)OCc1cccc(Oc2ccccc2)c1 [Compound 293] | 19 | 0.0045 | > 0.05 | > 0.1 | > 0.01
CC(C)C(=Nc1ccc(F)c(Cl)c1)OCc1cccc(Oc2ccc(Br)cc2)n1 [Compound 492] | 15 | 0.00028 | > 0.05 | 0.015 | > 0.01
Fc1ccc(N=C(OCc2cccc(Oc3ccccc3)c2)C(Cl)=C(Cl)Cl)cc1 [Compound 49] | > 100 | 0.007 | > 0.05 | > 0.05 | –
CCCC(=Nc1ccc2c(c1)OCO2)OCc1cccc(Oc2ccccc2)c1 [Compound 188] | 12 | 0.002 | > 0.05 | > 0.1 | –
CC(C)C(=Nc1cc(Cl)cc(Cl)c1)OCc1cccc(Oc2ccccc2)c1 [Compound 16] | 20 | 0.004 | 0.0005 | 0.04 | –
CCc1ccc(N=C(OCc2cccc(Oc3ccc(F)cc3)c2)C(C)C)cc1 [Compound 159] | 25 | 0.001 | 0.0025 | 0.08 | –
Clc1ccc(N=C(OCc2cccc(Oc3ccccc3)c2)C(Cl)Cl)c2ccccc12 [Compound 98] | > 100 | 0.016 | > 0.05 | 0.1 | –
CC(C)C(=Nc1c(Cl)cc([N+](=O)[O-])cc1Cl)OCc1cccc(Oc2ccccc2)c1 [Compound 92] | > 100 | 0.015 | > 0.05 | > 0.1 | –
CSc1ccc(Oc2cccc(COC(=Nc3ccc(F)cc3)C(C)C)c2)cc1 [Compound 257] | > 100 | 0.008 | > 0.05 | > 0.1 | –
CCc1cccc(N=C(OCc2cccc(Oc3ccccc3)c2)C(C)(C)C)c1 [Compound 162] | > 100 | 0.035 | > 0.05 | > 0.1 | –
CC(C)C(=Nc1ccc(OC(F)(F)F)cc1)OCc1cccc(Cc2ccccc2)c1 [Compound 538] | 75 | > 0.1 | > 0.05 | – | > 0.01
CC(C)C(=Nc1ccc(Cl)cc1)OC(C)c1cccc(Oc2ccccc2)c1 (stereo not shown) [Compound 457] | > 100 | 0.009 | > 0.05 | > 0.05 | –
Cc1c(Cl)cc(N=C(OCc2cccc(Oc3ccccc3)c2)C(C)C)cc1Cl [Compound 101] | 81 | 0.0045 | 0.0008 | > 0.1 | –
CCc1ccc(N=C(OCc2cccc(Oc3ccccc3)c2)C(C)C)cc1 [Compound 161] | 15 | 0.0014 | 0.002 | 0.07 | –
CCOC(=O)c1cc(N=C(OCc2cccc(Oc3ccccc3)c2)C(C)C)ccc1Cl [Compound 102] | > 100 | 0.075 | > 0.05 | > 0.1 | –
CCc1cccc(N=C(OCc2cccc(Oc3ccccc3)c2)C(C)C)c1 [Compound 154] | 25 | 0.004 | > 0.05 | 0.1 | –
CC(C)C(=Nc1cccc([N+](=O)[O-])c1)OCc1cccc(Oc2ccc(Cl)cc2)c1 [Compound 271] | 27 | 0.0004 | > 0.05 | 0.1 | –
CC(C)C(=Nc1ccc2c(c1)OC(C)(C)O2)OCc1ccc(F)c(Oc2ccccc2)c1 [Compound 242] | < 100 | 0.00025 | > 0.05 | > 0.1 | –
COc1ccc(OC)c(N=C(OCc2cccc(Oc3ccccc3)c2)C(C)C)c1 [Compound 69] | > 100 | 0.09 | > 0.05 | > 0.1 | –
Cc1ccc(Oc2cccc(COC(=Nc3ccc(F)c(Cl)c3)C(C)C)c2)cc1 [Compound 225] | > 100 | 0.0025 | > 0.05 | > 0.1 | –

Structure (SMILES) | LC50 HF [1] [µg] | LC50 CL [2] [%] | LC50 LH [3] [%] | LC50 TBW E [4] [%] | LC50 MW [5] [%]
CC(C)C(=Nc1ccc2c(c1)CCC2)OCc1cccc(Oc2ccccc2)c1 [Compound 187] | 15 | 0.0025 | 0.0025 | > 0.1 | –
Cc1ccc(N=C(OCc2cccc(Oc3ccccc3)c2)C(C)C)cc1Cl [Compound 90] | > 100 | > 0.1 | 0.001 | 0.016 | –
CC(C)C(=Nc1cc(F)ccc1Cl)OCc1ccc(F)c(Oc2ccc(F)cc2)c1 [Compound 303] | > 100 | 0.0015 | 0.0005 | > 0.1 | –
CC(C)C(=Nc1ccc(OC(F)(F)F)cc1)OCc1cccc(Oc2ccccc2)c1 [Compound 70] | < 100 | < 0.1 | > 0.05 | 0.01 | –
CC(C)C(=Nc1cc(Cl)c(Cl)c(Cl)c1)OCc1cccc(Oc2ccccc2)c1 [Compound 20] | 64 | 0.0025 | 0.003 | < 0.1 | –
CC(C)C(=Nc1ccc2c(c1)OCO2)OCc1cccc(Oc2ccc(F)cc2)n1 [Compound 465] | 8 | 0.0017 | 0.0025 | 0.027 | –
Fc1ccc(Oc2cccc(COC(=Nc3ccc(F)c(Cl)c3)C(F)(F)C(F)(F)F)c2)cc1 [Compound 258] | > 100 | 0.003 | > 0.05 | > 0.1 | –
CC(C)C(=Nc1ccc(I)cc1)OCc1cccc(Oc2ccccc2)c1 [Compound 137] | 18 | 0.003 | 0.008 | 0.04 | –
CC(C)C(=Nc1cccc(C(F)(F)F)c1)OCC#CCOc1ccccc1 [Compound 548] | > 100 | < 0.1 | > 0.05 | > 0.1 | –
CC(C)C(=Nc1ccc(C(C)C)cc1)OCc1cccc(Oc2ccc(F)cc2)c1 [Compound 228] | > 100 | 0.0025 | > 0.05 | > 0.1 | –
CC(C)CC(=Nc1cc(Cl)cc(Cl)c1)OCc1cccc(Oc2ccccc2)c1 [Compound 10] | > 100 | 0.01 | > 0.05 | > 0.1 | –
CC(C)C(=Nc1ccc(C(F)(F)F)c(Cl)c1)OCc1cccc(Oc2ccccc2)c1 [Compound 83] | > 100 | 0.007 | > 0.05 | > 0.1 | –
CC(C)C(=Nc1ccc(Br)cc1)OCc1cccc(Oc2ccccc2)c1 [Compound 131] | 17 | 0.0045 | 0.005 | > 0.1 | –
CC(C)(C)C(=Nc1ccc(Br)cc1)OCc1cccc(Oc2ccccc2)c1 [Compound 135] | > 100 | 0.004 | > 0.05 | > 0.1 | –
CCCc1ccc(N=C(OCc2ccc(F)c(Oc3ccc(F)cc3)c2)C(C)C)cc1 [Compound 440] | > 100 | 0.002 | – | < 0.1 | > 0.01
CC(C)(Cl)C(=Nc1ccc(C#N)c(Cl)c1)OCc1cccc(Oc2ccccc2)c1 [Compound 108] | 44 | 0.002 | > 0.01 | > 0.1 | –
CC(C)C(=Nc1c(F)c(F)cc(F)c1F)OCc1cccc(Oc2ccccc2)c1 [Compound 57] | > 100 | 0.004 | 0.0005 | 0.1 | –
CC(C)C(=Nc1cccc(C(F)(F)F)c1)OCc1cccc(Oc2ccc(Cl)cc2)n1 [Compound 477] | 20 | 0.0003 | – | > 0.1 | 0.0076
CC(C)C(=Nc1ccc(OCC(F)(F)F)c(Cl)c1)OCc1cccc(Oc2ccc(F)cc2)c1 [Compound 420] | > 100 | 0.00075 | – | 0.05 | > 0.01
CC(C)C(=Nc1c(F)cc(F)cc1Br)OCc1cccc(Oc2ccccc2)c1 [Compound 129] | > 100 | 0.005 | 0.01 | > 0.1 | –
COc1ccc(N=C(OCc2ccc(F)c(Oc3ccc(Cl)cc3)c2)C(C)C)cc1 [Compound 412] | < 100 | > 0.1 | – | > 0.1 | > 0.01
